Reference: the kinase profiling compilation of Christmann-Franck et al. (2016)

What was measured:
ABL1 (human) = ABL1 (human) (UniProt P00519); assay: SelectScreen, TR FRET; details: compound 10.0 µM
MAP3K7 TAB1 (human) = MAP3K7 TAB1 (human) (UniProt Q15750+O43318); assay: SelectScreen, TR FRET
PAK4 (human) = PAK4 (human) (UniProt O96013); assay: SelectScreen, TR FRET; details: compound 10.0 µM
ROCK2 (human) = ROCK2 (human) (UniProt O75116); assay: SelectScreen, TR FRET
IRAK4 (human) = IRAK4 (human) (UniProt Q9NWZ3); assay: SelectScreen, TR FRET
CLK1 (human) = CLK1 (human) (UniProt P49759); assay: SelectScreen, TR FRET; details: compound 10.0 µM
LRRK2 (human) [1] = molecular target: LRRK2 (human) (UniProt Q5S007); assay: SelectScreen, TR FRET; details: compound 10.0 µM
PRKCB1 (human) = PRKCB1 (human) (UniProt P05771); assay: SelectScreen, TR FRET
STK16 (human) = STK16 (human) (UniProt O75716); assay: SelectScreen, TR FRET
Chain of STK16 (human) (O75716 whole entry, looked up): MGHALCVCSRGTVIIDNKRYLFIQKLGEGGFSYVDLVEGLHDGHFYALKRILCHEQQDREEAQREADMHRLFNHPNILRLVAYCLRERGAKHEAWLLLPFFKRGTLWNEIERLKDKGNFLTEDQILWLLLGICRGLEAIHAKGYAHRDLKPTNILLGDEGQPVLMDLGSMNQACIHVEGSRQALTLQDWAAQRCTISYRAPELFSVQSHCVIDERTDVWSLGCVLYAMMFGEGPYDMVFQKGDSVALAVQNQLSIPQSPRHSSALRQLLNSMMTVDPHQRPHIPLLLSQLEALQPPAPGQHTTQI

PLK2 (human) = PLK2 (human) (UniProt Q9NYY3); assay: SelectScreen, TR FRET; details: compound 10.0 µM
DYRK1B (human) = DYRK1B (human) (UniProt Q9Y463); assay: SelectScreen, TR FRET; details: compound 10.0 µM
PDGFRA (human) = PDGFRA (human) (UniProt P16234); assay: SelectScreen, TR FRET
ERBB4 (human) = ERBB4 (human) (UniProt Q15303); assay: SelectScreen, TR FRET
STK3 (human) = STK3 (human) (UniProt Q13188); assay: SelectScreen, TR FRET
INSR (human) = INSR (human) (UniProt P06213); assay: SelectScreen, TR FRET
CAMK2A (human) = CAMK2A (human) (UniProt Q9UQM7); assay: SelectScreen, TR FRET
PLK3 (human) = PLK3 (human) (UniProt Q9H4B4); assay: SelectScreen, TR FRET
Chain of PLK3 (human) (Q9H4B4 whole entry, looked up): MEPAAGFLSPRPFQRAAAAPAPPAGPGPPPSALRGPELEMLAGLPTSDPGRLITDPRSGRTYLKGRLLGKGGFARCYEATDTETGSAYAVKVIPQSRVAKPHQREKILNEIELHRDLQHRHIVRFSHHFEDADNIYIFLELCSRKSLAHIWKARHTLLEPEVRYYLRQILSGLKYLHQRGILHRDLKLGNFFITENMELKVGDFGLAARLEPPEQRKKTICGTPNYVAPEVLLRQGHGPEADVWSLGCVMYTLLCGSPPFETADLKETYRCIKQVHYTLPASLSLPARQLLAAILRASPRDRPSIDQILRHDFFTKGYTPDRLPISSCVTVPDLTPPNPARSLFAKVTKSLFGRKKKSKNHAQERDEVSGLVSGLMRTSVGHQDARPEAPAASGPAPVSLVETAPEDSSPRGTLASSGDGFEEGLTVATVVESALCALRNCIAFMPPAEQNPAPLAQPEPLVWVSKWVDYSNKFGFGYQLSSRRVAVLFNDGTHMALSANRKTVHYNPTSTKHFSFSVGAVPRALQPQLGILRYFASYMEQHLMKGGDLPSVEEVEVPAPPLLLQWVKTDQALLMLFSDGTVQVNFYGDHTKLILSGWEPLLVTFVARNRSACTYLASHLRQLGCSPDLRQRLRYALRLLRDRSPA

RET (human) = RET (human) (UniProt P07949); assay: SelectScreen, TR FRET; details: compound 10.0 µM
SYK (human) = SYK (human) (UniProt P43405); assay: SelectScreen, TR FRET; details: compound 10.0 µM
FLT3 (human) = FLT3 (human) (UniProt P36888); assay: SelectScreen, TR FRET
PLK1 (human) = PLK1 (human) (UniProt P53350); assay: SelectScreen, TR FRET
RAF1 (human) = RAF1 (human) (UniProt P04049); assay: SelectScreen, TR FRET
Chain of RAF1 (human) (P04049 whole entry, looked up): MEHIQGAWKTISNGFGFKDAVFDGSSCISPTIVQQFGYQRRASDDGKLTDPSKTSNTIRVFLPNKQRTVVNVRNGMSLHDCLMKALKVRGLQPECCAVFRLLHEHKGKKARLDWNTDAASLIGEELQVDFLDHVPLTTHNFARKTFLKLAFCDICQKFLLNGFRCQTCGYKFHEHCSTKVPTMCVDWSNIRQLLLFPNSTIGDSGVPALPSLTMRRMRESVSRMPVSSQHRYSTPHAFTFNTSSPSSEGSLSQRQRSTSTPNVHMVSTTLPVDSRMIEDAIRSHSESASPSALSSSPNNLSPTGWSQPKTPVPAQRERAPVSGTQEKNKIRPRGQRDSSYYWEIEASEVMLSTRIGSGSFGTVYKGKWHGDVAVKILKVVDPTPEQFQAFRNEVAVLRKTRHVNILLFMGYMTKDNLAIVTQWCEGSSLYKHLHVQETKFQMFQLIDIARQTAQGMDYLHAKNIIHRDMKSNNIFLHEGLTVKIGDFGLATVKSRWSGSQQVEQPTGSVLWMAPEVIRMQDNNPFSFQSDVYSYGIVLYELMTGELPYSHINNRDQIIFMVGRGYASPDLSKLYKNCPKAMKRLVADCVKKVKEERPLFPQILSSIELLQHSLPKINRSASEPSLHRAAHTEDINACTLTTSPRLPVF

AURKA (human) = AURKA (human) (UniProt O14965); assay: SelectScreen, TR FRET; details: compound 10.0 µM
MAPK10 (human) = MAPK10 (human) (UniProt P53779); assay: SelectScreen, TR FRET
Chain of MAPK10 (human) (P53779 whole entry, looked up): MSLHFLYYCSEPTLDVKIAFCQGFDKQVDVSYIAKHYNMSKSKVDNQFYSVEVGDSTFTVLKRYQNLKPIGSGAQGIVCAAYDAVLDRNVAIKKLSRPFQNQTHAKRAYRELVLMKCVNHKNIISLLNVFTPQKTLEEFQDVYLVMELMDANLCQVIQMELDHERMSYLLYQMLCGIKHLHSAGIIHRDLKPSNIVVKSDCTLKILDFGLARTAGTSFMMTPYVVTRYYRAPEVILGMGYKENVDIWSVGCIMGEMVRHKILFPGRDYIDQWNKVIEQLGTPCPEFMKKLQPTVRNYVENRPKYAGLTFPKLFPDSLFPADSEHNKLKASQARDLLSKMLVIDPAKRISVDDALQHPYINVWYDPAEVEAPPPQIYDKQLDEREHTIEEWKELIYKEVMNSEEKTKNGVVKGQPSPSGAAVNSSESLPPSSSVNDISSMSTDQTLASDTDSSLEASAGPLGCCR

AKT1 (human) = AKT1 (human) (UniProt P31749); assay: SelectScreen, TR FRET
CHEK1 (human) = CHEK1 (human) (UniProt O14757); assay: SelectScreen, TR FRET; details: compound 10.0 µM
LCK (human) = LCK (human) (UniProt P06239); assay: SelectScreen, TR FRET
JAK1 JH1 JH2 (human) = JAK1 JH1 JH2 (human) (UniProt P23458); assay: SelectScreen, TR FRET
MARK2 (human) = MARK2 (human) (UniProt Q7KZI7); assay: SelectScreen, TR FRET; details: compound 10.0 µM
RIPK2 (human) = RIPK2 (human) (UniProt O43353); assay: SelectScreen, TR FRET; details: compound 10.0 µM
PTK2B (human) = PTK2B (human) (UniProt Q14289); assay: SelectScreen, TR FRET
Chain of PTK2B (human) (Q14289 whole entry, looked up): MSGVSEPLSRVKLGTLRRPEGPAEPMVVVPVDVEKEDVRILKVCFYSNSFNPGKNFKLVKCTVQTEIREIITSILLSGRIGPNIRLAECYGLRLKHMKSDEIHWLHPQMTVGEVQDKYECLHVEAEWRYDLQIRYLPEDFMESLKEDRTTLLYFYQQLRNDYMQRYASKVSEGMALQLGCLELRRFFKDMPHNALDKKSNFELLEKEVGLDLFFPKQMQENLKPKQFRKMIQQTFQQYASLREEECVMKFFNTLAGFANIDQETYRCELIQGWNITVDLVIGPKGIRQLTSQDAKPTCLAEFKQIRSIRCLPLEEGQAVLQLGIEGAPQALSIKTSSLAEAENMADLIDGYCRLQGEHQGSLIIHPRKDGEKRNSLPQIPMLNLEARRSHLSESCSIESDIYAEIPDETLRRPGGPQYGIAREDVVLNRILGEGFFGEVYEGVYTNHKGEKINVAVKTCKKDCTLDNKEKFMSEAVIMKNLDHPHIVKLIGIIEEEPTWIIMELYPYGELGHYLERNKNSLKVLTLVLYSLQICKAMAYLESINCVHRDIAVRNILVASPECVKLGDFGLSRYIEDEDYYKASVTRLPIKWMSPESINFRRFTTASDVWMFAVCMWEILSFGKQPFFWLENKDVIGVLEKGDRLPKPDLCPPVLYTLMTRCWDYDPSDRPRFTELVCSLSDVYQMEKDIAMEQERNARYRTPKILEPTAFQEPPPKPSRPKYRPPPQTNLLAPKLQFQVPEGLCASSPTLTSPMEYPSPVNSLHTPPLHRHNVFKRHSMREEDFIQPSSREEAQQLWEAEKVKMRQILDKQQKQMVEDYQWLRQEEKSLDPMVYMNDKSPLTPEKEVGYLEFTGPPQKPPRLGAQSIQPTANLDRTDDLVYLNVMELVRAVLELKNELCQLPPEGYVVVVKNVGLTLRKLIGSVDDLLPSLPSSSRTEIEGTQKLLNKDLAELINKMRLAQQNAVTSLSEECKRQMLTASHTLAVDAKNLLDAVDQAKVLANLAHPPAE

PIK3CA PIK3R1 (human) = PIK3CA PIK3R1 (human) (UniProt P27986+P42336); assay: SelectScreen, TR FRET
TTK (human) = TTK (human) (UniProt P33981); assay: SelectScreen, TR FRET
MAPK1 (human) = MAPK1 (human) (UniProt P28482); assay: SelectScreen, TR FRET
Chain of MAPK1 (human) (P28482 whole entry, looked up): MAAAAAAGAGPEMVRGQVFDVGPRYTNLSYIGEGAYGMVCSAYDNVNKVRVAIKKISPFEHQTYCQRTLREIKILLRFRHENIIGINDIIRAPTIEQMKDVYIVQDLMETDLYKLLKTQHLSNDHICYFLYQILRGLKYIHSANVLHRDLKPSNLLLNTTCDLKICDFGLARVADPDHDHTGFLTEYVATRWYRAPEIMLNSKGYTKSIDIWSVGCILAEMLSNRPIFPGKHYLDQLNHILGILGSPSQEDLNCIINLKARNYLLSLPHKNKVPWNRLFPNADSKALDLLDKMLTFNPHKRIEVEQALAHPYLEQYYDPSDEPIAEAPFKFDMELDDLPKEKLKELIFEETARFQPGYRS

PRKACA (human) = PRKACA (human) (UniProt P17612); assay: SelectScreen, TR FRET; details: compound 10.0 µM
CDK1 CCNB1 (human) = CDK1 CCNB1 (human) (UniProt P06493+P14635); assay: SelectScreen, TR FRET; details: compound 10.0 µM
GSK3B (human) = GSK3B (human) (UniProt P49841); assay: SelectScreen, TR FRET
CSF1R (human) = CSF1R (human) (UniProt P07333); assay: SelectScreen, TR FRET; details: compound 10.0 µM
CDK2 CCNA2 (human) = CDK2 CCNA2 (human) (UniProt P24941+P20248); assay: SelectScreen, TR FRET
CDK5 CDK5R1 p25 (human) = CDK5 CDK5R1 p25 (human) (UniProt Q15078+Q00535); assay: SelectScreen, TR FRET
LRRK2 (human) [2] = molecular target: LRRK2 (human) (UniProt Q5S007); assay: HTRF; details: ATP 100 µM
[3] = molecular target: LRRK2 (human), Q5S007 [G2019S]; assay: HTRF; details: ATP 100 µM

Chain of ROCK2 (human) (O75116 whole entry, looked up): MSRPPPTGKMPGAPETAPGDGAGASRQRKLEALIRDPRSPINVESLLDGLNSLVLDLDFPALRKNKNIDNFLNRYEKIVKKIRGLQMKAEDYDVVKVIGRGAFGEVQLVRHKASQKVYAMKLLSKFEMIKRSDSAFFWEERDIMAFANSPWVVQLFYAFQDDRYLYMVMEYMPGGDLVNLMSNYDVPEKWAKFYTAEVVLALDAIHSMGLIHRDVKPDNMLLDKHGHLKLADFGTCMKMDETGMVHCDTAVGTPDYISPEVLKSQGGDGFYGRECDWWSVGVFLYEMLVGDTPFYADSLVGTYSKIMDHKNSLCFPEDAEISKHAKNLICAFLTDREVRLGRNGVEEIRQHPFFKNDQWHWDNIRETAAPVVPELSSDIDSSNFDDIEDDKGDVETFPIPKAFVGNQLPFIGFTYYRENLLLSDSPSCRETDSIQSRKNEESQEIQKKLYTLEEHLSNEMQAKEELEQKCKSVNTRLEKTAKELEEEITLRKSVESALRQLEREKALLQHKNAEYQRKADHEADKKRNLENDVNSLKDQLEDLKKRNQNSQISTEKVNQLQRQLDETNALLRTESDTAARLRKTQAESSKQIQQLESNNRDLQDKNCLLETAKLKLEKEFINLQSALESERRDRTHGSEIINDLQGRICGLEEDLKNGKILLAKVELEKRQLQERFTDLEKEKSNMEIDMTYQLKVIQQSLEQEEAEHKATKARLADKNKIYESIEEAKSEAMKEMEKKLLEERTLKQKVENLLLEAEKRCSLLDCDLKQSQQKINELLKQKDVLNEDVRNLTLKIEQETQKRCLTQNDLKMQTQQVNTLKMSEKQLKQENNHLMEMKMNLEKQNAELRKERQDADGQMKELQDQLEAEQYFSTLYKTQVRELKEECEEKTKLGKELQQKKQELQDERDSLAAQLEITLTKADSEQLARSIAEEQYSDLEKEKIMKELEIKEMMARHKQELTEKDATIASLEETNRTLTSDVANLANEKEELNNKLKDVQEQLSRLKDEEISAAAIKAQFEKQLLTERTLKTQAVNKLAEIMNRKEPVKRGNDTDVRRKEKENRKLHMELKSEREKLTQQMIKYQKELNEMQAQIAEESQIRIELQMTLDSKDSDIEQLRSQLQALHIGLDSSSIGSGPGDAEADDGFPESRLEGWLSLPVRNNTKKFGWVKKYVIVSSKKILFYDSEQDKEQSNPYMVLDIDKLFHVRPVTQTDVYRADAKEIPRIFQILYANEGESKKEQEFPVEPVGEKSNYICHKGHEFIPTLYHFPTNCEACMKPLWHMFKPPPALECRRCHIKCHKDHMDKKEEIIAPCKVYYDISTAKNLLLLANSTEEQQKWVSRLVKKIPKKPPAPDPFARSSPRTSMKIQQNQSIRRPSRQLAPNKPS

Which inhibition (ABL1 (human)) does the source give for `C[C@@H](Nc1c(C#N)cnc2cc(-c3ccc(N4CCOC4=O)cc3)ccc12)C1CC1` here?
Its inhibition is 29.9%.

What about the inhibition (MAP3K7 TAB1 (human); compound 10.0 µM) of the same compound?
Its inhibition is -5.32%.

And the inhibition (PAK4 (human))?
Its inhibition is 19.3%.

What about the inhibition (ROCK2 (human); compound 10.0 µM) of the same compound?
Its inhibition is 16.4%.

What about the inhibition (IRAK4 (human); compound 10.0 µM) of the same compound?
Its inhibition is 9.89%.

And the inhibition (CLK1 (human))?
Its inhibition is 6.88%.

And the inhibition (LRRK2 (human) [1])?
Its inhibition is 81.3%.

And the inhibition (PRKCB1 (human); compound 10.0 µM)?
The inhibition was -1.79%.

What about the inhibition (STK16 (human); compound 10.0 µM) of the same compound?
The inhibition was -24.1%.

What about the inhibition (PLK2 (human)) of the same compound?
The inhibition was 53.7%.

And the inhibition (DYRK1B (human))?
The inhibition was 23.7%.

And the inhibition (PDGFRA (human); compound 10.0 µM)?
Its inhibition is 4.67%.

And the inhibition (ERBB4 (human); compound 10.0 µM)?
Its inhibition is 6.95%.

What about the inhibition (STK3 (human); compound 10.0 µM) of the same compound?
The inhibition was 18.1%.

What about the inhibition (INSR (human); compound 10.0 µM) of the same compound?
The inhibition was 0.146%.

What about the inhibition (CAMK2A (human); compound 10.0 µM) of the same compound?
The inhibition was 29.7%.

What about the inhibition (PLK3 (human); compound 10.0 µM) of the same compound?
Its inhibition is 5.89%.

And the inhibition (RET (human))?
Its inhibition is 11.8%.

What about the inhibition (SYK (human)) of the same compound?
Its inhibition is 71%.

What about the inhibition (FLT3 (human); compound 10.0 µM) of the same compound?
The inhibition was 44.5%.

What about the inhibition (PLK1 (human); compound 10.0 µM) of the same compound?
Its inhibition is 8.21%.

And the inhibition (RAF1 (human); compound 10.0 µM)?
Its inhibition is 5.94%.

What about the inhibition (AURKA (human)) of the same compound?
Its inhibition is 66.7%.

What about the inhibition (MAPK10 (human); compound 10.0 µM) of the same compound?
Its inhibition is -17.1%.

What about the inhibition (AKT1 (human); compound 10.0 µM) of the same compound?
Its inhibition is -1.71%.

And the inhibition (CHEK1 (human))?
Its inhibition is 30.7%.

What about the inhibition (LCK (human); compound 10.0 µM) of the same compound?
The inhibition was 18.4%.

What about the inhibition (JAK1 JH1 JH2 (human); compound 10.0 µM) of the same compound?
The inhibition was 4.09%.

And the inhibition (MARK2 (human))?
The inhibition was 40.2%.

And the inhibition (RIPK2 (human))?
The inhibition was 55.8%.

What about the inhibition (PTK2B (human); compound 10.0 µM) of the same compound?
The inhibition was 15.9%.

What about the inhibition (PIK3CA PIK3R1 (human); compound 10.0 µM) of the same compound?
Its inhibition is 13.5%.

And the inhibition (TTK (human); compound 10.0 µM)?
Its inhibition is 11.2%.

And the inhibition (MAPK1 (human); compound 10.0 µM)?
The inhibition was -1.85%.

And the inhibition (PRKACA (human))?
The inhibition was -2.65%.

And the inhibition (CDK1 CCNB1 (human))?
Its inhibition is 11.7%.

And the inhibition (GSK3B (human); compound 10.0 µM)?
Its inhibition is 0.682%.

What about the inhibition (CSF1R (human)) of the same compound?
Its inhibition is 39.5%.

And the inhibition (CDK2 CCNA2 (human); compound 10.0 µM)?
The inhibition was 0.295%.

What about the inhibition (CDK5 CDK5R1 p25 (human); compound 10.0 µM) of the same compound?
The inhibition was 5.49%.

What about the IC50 (LRRK2 (human) [2]) of the same compound?
The IC50 was 48 nM.

And the IC50 [3]?
The IC50 was 27 nM.

With `CC(C)Nc1c(C#N)cnc2cc(-c3cnn(C)c3)ccc12` as the compound, how does the inhibition (ROCK2 (human); compound 1.0 µM) read?
Its inhibition is 14.2%.

And the inhibition (PRKCB1 (human); compound 1.0 µM)?
The inhibition was -7.3%.

And the inhibition (STK16 (human); compound 1.0 µM)?
Its inhibition is 10.1%.

What about the inhibition (ERBB4 (human); compound 1.0 µM) of the same compound?
Its inhibition is 4.52%.

What about the inhibition (STK3 (human); compound 1.0 µM) of the same compound?
Its inhibition is 15.4%.

What about the inhibition (INSR (human); compound 1.0 µM) of the same compound?
Its inhibition is 1.29%.

What about the inhibition (CAMK2A (human); compound 1.0 µM) of the same compound?
The inhibition was 27.5%.

And the inhibition (PLK3 (human); compound 1.0 µM)?
The inhibition was 11.5%.

What about the inhibition (PLK1 (human); compound 1.0 µM) of the same compound?
Its inhibition is 23.6%.

And the inhibition (RAF1 (human); compound 1.0 µM)?
Its inhibition is 12.4%.

And the inhibition (MAPK10 (human); compound 1.0 µM)?
Its inhibition is 4.47%.

What about the inhibition (AKT1 (human); compound 1.0 µM) of the same compound?
Its inhibition is -0.488%.

What about the inhibition (JAK1 JH1 JH2 (human); compound 1.0 µM) of the same compound?
Its inhibition is 2.9%.

What about the inhibition (PTK2B (human); compound 1.0 µM) of the same compound?
The inhibition was 12.2%.

And the inhibition (TTK (human); compound 1.0 µM)?
Its inhibition is -8.51%.

And the inhibition (MAPK1 (human); compound 1.0 µM)?
Its inhibition is -2.05%.

And the inhibition (CDK2 CCNA2 (human); compound 1.0 µM)?
Its inhibition is 5.33%.

What about the inhibition (CDK5 CDK5R1 p25 (human); compound 1.0 µM) of the same compound?
The inhibition was 12.4%.

And the IC50 (LRRK2 (human) [2])?
The IC50 was 70 nM.

What about the IC50 [3] of the same compound?
The IC50 was 50 nM.

For `CC(C)Nc1c(C#N)cnc2cc(-c3ccc(S(C)(=O)=O)cc3)ccc12`, which inhibition (MAP3K7 TAB1 (human); compound 1.0 µM) is on record?
The inhibition was 7.1%.

And the inhibition (ROCK2 (human); compound 1.0 µM)?
The inhibition was 11.8%.

What about the inhibition (IRAK4 (human); compound 1.0 µM) of the same compound?
Its inhibition is 29.4%.

What about the inhibition (PRKCB1 (human); compound 1.0 µM) of the same compound?
The inhibition was 19.4%.

And the inhibition (STK16 (human); compound 1.0 µM)?
Its inhibition is 3.38%.

And the inhibition (PDGFRA (human); compound 1.0 µM)?
Its inhibition is 33.4%.

What about the inhibition (PLK3 (human); compound 1.0 µM) of the same compound?
The inhibition was 13.5%.

What about the inhibition (FLT3 (human); compound 1.0 µM) of the same compound?
The inhibition was 15.5%.

And the inhibition (RAF1 (human); compound 1.0 µM)?
Its inhibition is 3.26%.

What about the inhibition (MAPK10 (human); compound 1.0 µM) of the same compound?
Its inhibition is -11.1%.

What about the inhibition (AKT1 (human); compound 1.0 µM) of the same compound?
The inhibition was 9.66%.

And the inhibition (LCK (human); compound 1.0 µM)?
The inhibition was 25.5%.

And the inhibition (JAK1 JH1 JH2 (human); compound 1.0 µM)?
The inhibition was 16.5%.

What about the inhibition (PTK2B (human); compound 1.0 µM) of the same compound?
The inhibition was 33.5%.

What about the inhibition (PIK3CA PIK3R1 (human); compound 1.0 µM) of the same compound?
The inhibition was -1.66%.

And the inhibition (TTK (human); compound 1.0 µM)?
Its inhibition is -3.76%.

What about the inhibition (MAPK1 (human); compound 1.0 µM) of the same compound?
Its inhibition is 9.79%.

And the inhibition (GSK3B (human); compound 1.0 µM)?
The inhibition was 27.6%.

What about the inhibition (CDK2 CCNA2 (human); compound 1.0 µM) of the same compound?
The inhibition was 11.7%.
